Results taken from patent EP0840781B1, “METHODS AND DEVICES FOR THE REMOVAL OF PSORALENS FROM BLOOD PRODUCTS” (Cerus Corporation, priority 1995, dated 1996).

Test: HPLC retention time as rough estimate of hydrophobicity
Assay type: physicochemical
Conditions: C-18 reversed phase column, methanol / 25 mM KH2PO4 pH 3.5 gradient
Experimental: Adsorption data were then obtained by HPLC. analysis on the test and control samples. Specifically, a 200 µl sample volume of PC was removed from each tube following the incubation period (special care being taken to ensure that no adsorbent particles were removed with the test samples). […] The addition of methanol lyses platelets and precipitates plasma proteins so that psoralen contained within the platelets is not excluded by the assay.
Since each of the psoralens were analyzed using the same type of HPLC assay, one can use the psoralens' relative retention times to rank them according to increasing hydrophobicity. […] Strong interactions with cells or plasma proteins could compete with adsorption, thereby interfering with resin binding.
For `CCN(CC)CCCOc1c2occc2c(Br)c2ccc(=O)oc12` [Psoralen C, 5-bromo-8-(diethylaminopropyloxy)-psoralen], the “HPLC retention time (rough estimate of hydrophobicity)” value (“HPLC retention time” below) was 12.0 min.
For `CC[N+](CC)(CC)Cc1c(C)oc2c(C)c3oc(=O)cc(C)c3cc12` [Psoralen A, 4'-(triethylamino) methyl-4,5',8-trimethylpsoralen], the “HPLC retention time” value was 7.8 min.
With `COc1c2occc2c(Br)c2ccc(=O)oc12` [Psoralen B, 5-bromo-8-methoxypsoralen] the “HPLC retention time” value was 20.0 min.
